# Test results published in patent US20080261986A1, “PHARMACEUTICAL FORMULATIONS FOR IONTOPHORETIC DELIVERY OF AN ANTI-FUNGAL DRUG” (priority 2007, published 2008).
# Values joined by “and” are separate entries in the source; they are usually repeats but may differ in a detail not shown here. Equal values may be shown once. Where a name gives a salt, the structure may show the parent alone. Read-outs that look alike come from different tables or passages of the source.
# Experiments:
# [1] = Approximate visual solubility in receiver fluids; format: physicochemical
# Experimental: The visual solubility of each receiver fluid shown in Table 3 below was initially tested for ketoconazole (BUFA B.V.) and ciclopirox (PCAS Finland Oy). Additional solubility testing was then conducted for terbinafine hydrochloride (QueMaCo Ltd.), amorolfine hydrochloride (Inter-Chemical Ltd.) and itraconazole EP (Shamrock, UK) and the results are shown in Table 3.
# The solubility of terbinafine hydrochloride, fluconazole, itraconazole and amorolfine hydrochloride was determined in PBS and 5% Tween 80 and the results are summarized in Table 4.
# [2] = test system: C. albicans; experiment: Permeation across full thickness nail (ChubTur cell), receiver fluid assayed by C. albicans growth absorbance; format: cell-based; settings: for Absorbance: replicates 1-3, full thickness human nail, C. albicans, 600 nm; for permeation across full thickness nail: all conditions tested (cathodal, anodal, passive)
# [3] = format: in vitro ADME, human
# Experimental: Prehydrated cadaver finger nails (approximately 0.5-0.7 mm thickness) or bovine hooves (approximately 0.25 mm thickness) were used for comparing different formulations as described in Examples 8-10. […] A nail adaptor was required to accommodate the curvature of the nail, but not for the hoof. The receptor compartments were filled with receiver fluid (3-5 ml water pH 3) and the drug formulations described above (0.5-2 mL) were placed in the donor compartment. […] Receptor levels of drug permeated were analyzed. Aliquots removed were replaced with an equal amount of buffer, and were assayed by HPLC to measure terbinafine HCl permeation through the nail or hoof. Control passive experiments were conducted in the same way except for the application of electric current. Nails or hooves were taken out of the FDC and drug extracted as described in Example 4. The drug loading levels in the nail or hoof were expressed as mg terbinafine HCl per g of nail or hoof. Data were expressed as means ±standard deviations. All experiments were performed in triplicate. […] The four formulations were evaluated for permeation of terbinafine HCl through the nail and loading in the nail as described in Example 8. Formulations containing benzoic acid improved permeation of terbinafine HCl through the nail over the base glycerin formulation without benzoic acid (FIG. 7A).
# [4] = aqueous with cosolvent or surfactant or cyclodextrin, Approximate visual solubility
compound,measurement,setting,value
CC(=O)N1CCN(c2ccc(OCC3COC(Cn4ccnc4)(c4ccc(Cl)cc4Cl)O3)cc2)CC1 (stereo not shown) [ketoconazole],solubility in receiver fluid (in words),[1]; PBS and 5% Tween 80,good solubility
same,solubility,"[1]; aqueous buffer, 1% Propylene glycol in PBS, read-out: Approximate visual solubility",< 554 µg/mL
same,solubility,"[1]; aqueous with cosolvent or surfactant or cyclodextrin, 20 mM B hydroxylpropyl cyclodextrin in PBS, read-out: Approximate visual solubility",< 1030 µg/mL
same,solubility,"[1]; aqueous with cosolvent or surfactant or cyclodextrin, 200 mM B hydroxylpropyl cyclodextrin in PBS, read-out: Approximate visual solubility",2120 to 2370 µg/mL
same,solubility,"[1]; aqueous with cosolvent or surfactant or cyclodextrin, 0.5% Tween-80 in PBS, read-out: Approximate visual solubility",< 412 µg/mL
same,solubility,"[1]; aqueous with cosolvent or surfactant or cyclodextrin, 1% Tween-80 in PBS, read-out: Approximate visual solubility",< 458 µg/mL
same,solubility,"[1]; aqueous with cosolvent or surfactant or cyclodextrin, 2% Tween-80 in PBS, read-out: Approximate visual solubility",< 646 µg/mL
same,solubility,"[1]; aqueous with cosolvent or surfactant or cyclodextrin, 5% Ethanol in PBS, read-out: Approximate visual solubility",< 910 µg/mL
same,solubility,"[1]; aqueous with cosolvent or surfactant or cyclodextrin, 5% Propylene glycol in PBS, read-out: Approximate visual solubility",< 472 µg/mL
same,solubility,"[1]; aqueous with cosolvent or surfactant or cyclodextrin, 5% Tween-80 in PBS, read-out: Approximate visual solubility",1280 to 1530 µg/mL
same,solubility,"[1]; aqueous with cosolvent or surfactant or cyclodextrin, 10% Ethanol in PBS, read-out: Approximate visual solubility",< 438 µg/mL
same,solubility,"[1]; aqueous with cosolvent or surfactant or cyclodextrin, 20% Ethanol in PBS, read-out: Approximate visual solubility",< 398 µg/mL
"OC(Cn1cncn1)(Cn1cncn1)c1ccc(F)cc1F [Fluconazole, fluconazole]",solubility,"[1]; aqueous with cosolvent or surfactant or cyclodextrin, PBS and 5% Tween 80 (Table 4), read-out: Approximate visual solubility",1910 to 2170 µg/mL
Cc1cc(C2CCCCC2)n(O)c(=O)c1 [ciclopirox],Absorbance,"[2]; Anodal iontophoresis (1000 μA, 1 hr), listed as Ciclopirox",0.045 and 0.044 and 0.068
same,Absorbance,"[2]; Cathodal iontophoresis, controls: no C. albicans 0.037-0.039, no compound 0.126-0.160, listed as Ciclopirox",0.075 and 0.085 and 0.079
same,Absorbance,"[2]; Passive permeation, listed as Ciclopirox",0.075 and 0.046
same,permeation across full thickness nail,[2],appeared to penetrate the nail regardless of whether current was applied
same,solubility in receiver fluid (in words),[1],good solubility
same,solubility,"[1]; aqueous buffer, Approximate visual solubility",< 388 µg/mL
"CCC(C)n1ncn(-c2ccc(N3CCN(c4ccc(OCC5COC(Cn6cncn6)(c6ccc(Cl)cc6Cl)O5)cc4)CC3)cc2)c1=O (stereo not shown) [Itraconazole, itraconazole]",solubility,[1]; [4],< 330 µg/mL
"CCC(C)(C)c1ccc(CC(C)CN2C[C@@H](C)O[C@@H](C)C2)cc1 (stereo partly shown) [Amorolfine hydrochloride, amorolfine hydrochloride]",Absorbance,"[2]; Anodal iontophoresis (1000 μA, 1 hr), listed as Amorolifine, hydrochloride",0.54 and 0.44 and 0.40
same,Absorbance,"[2]; Cathodal iontophoresis, controls: no C. albicans 0.037-0.039, no compound 0.126-0.160, listed as Amorolifine, hydrochloride",0.50 and 0.54 and 0.49
same,Absorbance,"[2]; Passive permeation, listed as Amorolifine, hydrochloride",0.48 and 0.59 and 0.54
same,permeation across full thickness nail,[2],did not show permeation of the nail under any conditions tested
same,solubility,[1]; [4],2050 to 2570 µg/mL
PEG 400,permeation of terbinafine HCl through the nail (in words),[3],further improved the permeation of terbinafine HCl through the nail
"Cc1cc(C2CCCCC2)n(O)c(=O)c1 [Ciclopirox olamine, ciclopirox olamine]",Absorbance,"[2]; Anodal iontophoresis (1000 μA, 1 hr)",0.042 and 0.079
same,Absorbance,"[2]; Cathodal iontophoresis, controls: no C. albicans 0.037-0.039, no compound 0.126-0.160",0.048
same,Absorbance,[2]; Passive permeation,0.157 and 0.129
same,permeation across full thickness nail (detection in receiver fluid),[2]; both cathodal and anodal iontophoresis,detected in the receiver fluid
same,permeation across full thickness nail (detection in receiver fluid),[2]; passive delivery,not with passive delivery
